Here are results for six molecules from patent US8828989B2, “Oxy-cyclohexyl-4H,6H-5-oxa-2,3,10b-triaza-benzo[E]azulenes as V1A antagonists” (Hoffmann-La Roche Inc., priority 2011, dated 2014).

For the assay, the target named is T1, human V1a receptor (Homo sapiens, UniProt P37288).
T1 construct: expressed in transfected cells; host or cells: HEK293 cells, transiently transfected (membrane preparation)
T1 sequence (P37288 whole entry): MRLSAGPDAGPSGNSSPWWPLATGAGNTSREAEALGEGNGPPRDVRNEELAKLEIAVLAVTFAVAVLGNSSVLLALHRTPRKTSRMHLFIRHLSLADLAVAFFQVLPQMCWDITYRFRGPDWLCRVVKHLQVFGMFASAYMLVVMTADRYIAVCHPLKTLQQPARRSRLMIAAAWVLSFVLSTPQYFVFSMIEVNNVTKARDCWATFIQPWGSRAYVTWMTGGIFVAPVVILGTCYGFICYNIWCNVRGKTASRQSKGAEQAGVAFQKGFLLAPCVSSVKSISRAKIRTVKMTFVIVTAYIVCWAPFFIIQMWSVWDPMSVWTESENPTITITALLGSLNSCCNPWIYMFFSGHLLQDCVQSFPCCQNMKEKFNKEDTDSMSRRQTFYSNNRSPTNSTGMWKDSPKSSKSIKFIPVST
The assay can be described thus: human V1a receptor binding studies (3H-Vasopressin SPA, membranes of transfected HEK293 cells). The settings on record: 3H-Vasopressin displacement, HEK293 cell membranes, Ki by Cheng-Prussoff equation; read-out: pKi hV1a (converted). As to the method:
The human V1a receptor was cloned by RT-PCR from total human liver RNA. The coding sequence was subcloned in an expression vector after sequencing to confirm the identity of the amplified sequence. […] Cell membranes were prepared from HEK293 cells transiently transfected with the expression vector and grown in 20 liter fermenters with the following protocol.
50 g of cells are resuspended in 30 ml freshly prepared ice cold Lysis buffer (50 mM HEPES, 1 mM EDTA, 10 mM MgCl2 adjusted to pH=7.4+complete cocktail of protease inhibitor (Roche Diagnostics)). Homogenized with Polytron for 1 min and sonicated on ice for 2×2 minutes at 80% intensity (Vibracell sonicator). The preparation is centrifuged 20 min at 500 g at 4° C., the pellet is discarded and the supernatant centrifuged 1 hour at 43,000 g at 4° C. (19,000 rpm). The pellet is resuspended in 12.5 ml Lysis buffer+12.5 ml Sucrose 20% and homogenized using a Polytron for 1-2 min. The protein concentration is determined by the Bradford method and aliquots are stored at −80° C. until use. For binding studies 60 mg Yttrium silicate SPA beads (Amersham) are mixed with an aliquot of membrane in binding buffer (50 mM Tris, 120 mM NaCl, 5 mM KCl, 2 mM CaCl2, 10 mM MgCl2) for 15 minutes with mixing. 50 μl of bead/membrane mixture is then added to each well of a 96 well plate, followed by 50 μl of 4 nM 3H-Vasopressin (American Radiolabeled Chemicals). For total binding measurement 100 μl of binding buffer are added to the respective wells, for non-specific binding 100 μl of […] cold vasopressin and for compound testing 100 μl of a serial dilution of each compound in 2% DMSO. The plate is incubated 1 h at room temperature, centrifuged 1 min at 1000 g and counted on a Packard Top-Count. Non-specific binding counts are subtracted from each well and data is normalized to the maximum specific binding set at 100%. To calculate an IC 50 the curve is fitted using a non-linear regression model (XLfit) and the Ki is calculated using the Cheng-Prussoff equation.
Turning to `CC(C)O[C@H]1CC[C@H](c2nnc3n2-c2ccc(Cl)cc2COC3)CC1` [Example 1, trans-8-Chloro-1-(4-isopropoxy-cyclohexyl)-4H,6H-5-oxa-2,3,10b-triaza-benzo[e]azulene], the Ki is 19.1 nM.
The value for `CCC(C)O[C@H]1CC[C@H](c2nnc3n2-c2ccc(Cl)cc2COC3)CC1` (stereo partly drawn) [Example 2, trans-1-(4-sec-Butoxy-cyclohexyl)-8-chloro-4H,6H-5-oxa-2,3,10b-triaza-benzo[e]azulene] was 4.37 nM; that for `Clc1ccc2c(c1)COCc1nnc([C@H]3CC[C@H](OC4CCCC4)CC3)n1-2` [Example 3, trans-8-Chloro-1-(4-cyclopentyloxy-cyclohexyl)-4H,6H-5-oxa-2,3,10b-triaza-benzo[e]azulene] was 0.407 nM; that for `Clc1ccc2c(c1)COCc1nnc([C@H]3CC[C@H](Oc4ccccc4)CC3)n1-2` [Example 4, trans-8-Chloro-1-(4-phenoxy-cyclohexyl)-4H,6H-5-oxa-2,3,10b-triaza-benzo[e]azulene] was 1.32 nM.
For `Clc1ccc2c(c1)COCc1nnc([C@H]3CC[C@H](Oc4ccccn4)CC3)n1-2` [Example 5, trans-8-Chloro-1-[4-(pyridin-2-yloxy)-cyclohexyl]-4H,6H-5-oxa-2,3,10b-triaza-benzo[e]azulene], the Ki is 2.34 nM.
Turning to `Clc1ccc2c(c1)COCc1nnc([C@H]3CC[C@H](Oc4cnccn4)CC3)n1-2` [Example 6, trans-8-Chloro-1-[4-(pyrazin-2-yloxy)-cyclohexyl]-4H,6H-5-oxa-2,3,10b-triaza-benzo[e]azulene], the Ki is 26.9 nM.
